Experimental data reported in patent US10612051B2, “Method of producing bioproducts” (White Dog Labs, Inc., priority 2015, dated 2020).

How the values were obtained:
[1] = Extraction of aqueous bioproduct solutions with 1-butene in a pressure vessel (distribution coefficient); format: physicochemical; conditions: for DC (bioproduct distribution coefficient): 1-butene / aqueous phase, Table 1; for Extract Bioproduct conc. (%) / Raffinate Bioproduct conc. (%): 100 g aqueous solution, 2% initial bioproduct, mixed with 100 g 1-butene; for Extract Bioproduct conc. (%): extract phase; for Raffinate Bioproduct conc. (%): raffinate phase
Description: (§1) 100 g (grams) aqueous solutions of various bioproducts were prepared. Bioproduct initial concentration was 2%. Each of these bioproduct aqueous solutions was extracted in a pressure vessel by mixing with 100 g 1-butene (the olefin). The amount of formed extract and formed raffinate and the concentration (conc.) of the bioproduct in each were determined. Theses concentrations were used to calculate the bioproduct distribution coefficient (DC). Table 2 compares the found distribution coefficients to those of extracting with dimethyl ether (DME).

[2] = Extraction with dimethyl ether (DME), distribution coefficient for comparison; format: physicochemical; conditions: extracting with dimethyl ether
Description: as §1

[3] = 25° C.; cited from earlier work

Compound | DC (bioproduct distribution coefficient) [1] | Extract Bioproduct conc. (%) [1] [%] | Raffinate Bioproduct conc. (%) [1] [%] | Distribution coefficient DME [2] | n-butanol content of saturated aqueous solution [3]
CCCC(C)=O [Example 2-Pentanone, 2-Pentanone] | 7.95 | 1.81 | 0.23 | 5.82 | –
CCCCO [n-butanol] | – | – | – | – | about 7.3 wt %
O=Cc1ccco1 [Furfural] | 3.35 | 1.56 | 0.47 | 3.79 | –
O=C(O)CCC(=O)O [Succinic Acid] | 0.11 | 0.158 | 1.77 | 1.01 | –
O=C1CCCO1 [Gamma Butyrolactone] | 3.69 | 1.60 | 0.43 | 3.14 | –
CCC(=O)O [Propionic Acid] | 1.01 | 1.00 | 1.00 | 2.27 | –
CCCC=O [Butanal] | 6.96 | 1.78 | 0.26 | 5.11 | –
CCCC(=O)OC [Methyl Butyrate] | 53.8 | 2.00 | 0.038 | 20.73 | –
O=C(O)CCCC(=O)O [Glutaric Acid] | 0.27 | 0.44 | 1.51 | 1.88 | –
